From paper PMC11571797, “Vitamin B6 inhibits activity of Helicobacter pylori adenylosuccinate synthetase and growth of reference and clinical, antibiotic-resistant H. pylori strains” (Journal of Enzyme Inhibition and Medicinal Chemistry, 2024)

Target: T1, adenylosuccinate synthetase (AdSS) (Helicobacter pylori, UniProt P56137)
T1 construct: gene purA
Assay: X-ray crystal structure with IMP ([…] A); enzyme inhibition, GTP-competitive, and time-dependent inactivation (IC50^eq […] without GTP)
Type: biochemical

T1 sequence (P56137 whole entry): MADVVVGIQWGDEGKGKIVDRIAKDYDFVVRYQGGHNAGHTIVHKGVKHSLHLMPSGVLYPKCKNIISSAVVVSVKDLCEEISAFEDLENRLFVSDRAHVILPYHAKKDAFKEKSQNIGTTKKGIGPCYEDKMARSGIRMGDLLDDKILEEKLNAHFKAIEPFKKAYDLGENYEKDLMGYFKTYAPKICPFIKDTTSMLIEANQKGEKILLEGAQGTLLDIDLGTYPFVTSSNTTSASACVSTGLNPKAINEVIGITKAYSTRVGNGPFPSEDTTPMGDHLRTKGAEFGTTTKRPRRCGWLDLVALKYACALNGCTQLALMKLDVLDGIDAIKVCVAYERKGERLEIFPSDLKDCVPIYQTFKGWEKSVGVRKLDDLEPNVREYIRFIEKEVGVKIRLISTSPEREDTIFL

Cc1ncc(COP(=O)(O)O)c(C=O)c1O [PLP, pyridoxal 5'-phosphate]
Ki: 6.95 µM
